Results published in patent publication US20190142971A1, “FORMULATION AND DELIVERY OF MODIFIED NUCLEOSIDE, NUCLEOTIDE, AND NUCLEIC ACID COMPOSITIONS” (ModernaTX, Inc., priority 2013, published 2019).

Assays:
Balb-C mice [1] = test: Example 79: fibrin sealant (Tisseel) with luciferase mRNA SC in mice, total flux (Tables 119, 120); format: in vivo; conditions: subcutaneous
Protocol: The thrombin and fibrinogen components were loaded separately into a dual barreled syringe. […] The injection of fibrinogen and thrombin was done simultaneously using the dual-barreled syringe. The subcutaneous injection of luciferase was done 15 minutes after the fibrinogen/thrombin injection to allow the fibrin hydrogel to polymerize (Tisseel+Luciferase group). A control group of untreated mice were also evaluated. The mice were imaged at 5 hours and 24 hours. Twenty minutes prior to imaging, mice were injected intraperitoneally with a D-luciferin solution at 150 mg/kg. Animals were then anesthetized and images were acquired with an IVIS Lumina II imaging system (Perkin Elmer). Bioluminescence was measured as total flux (photons/second) of the entire mouse.

[2] = test system: peripheral blood mononuclear cells (PBMC); test: Example 46A: percent modification, PBMC G-CSF ELISA (Table 73); format: cell-based, human
Protocol: 960 ng of G-CSF mRNA modified with 5-methylcytosine (5mC) and pseudouridine (pseudoU) or unmodified G-CSF mRNA was transfected with 0.8 uL of Lipofectamine 2000 into peripheral blood mononuclear cells (PBMC) from three normal blood donors (D1, D2, D3). […] The supernatant was harvested and run by ELISA 22 hours after transfection to determine the protein expression. The expression of IFN-alpha and TNF-alpha may be a secondary effect from the transfection of the G-CSF mRNA.

Balb-C mice [3] = test: Example 108: luciferase mRNA IM with electroporation, total flux (Tables 174-176); format: in vivo; conditions: PBS, IM 2.5 mg/kg
Protocol: The mice of Group 2 were treated with electroporation (EP) using the […]™ instrument (Harvard Apparatus/BTX®, Holliston, Mass.) immediately after administration of luciferase.
[…] Twenty minutes prior to imaging, the mice were injected intraperitoneally with a D-luciferin solution at 150 mg/kg. Animals were then anesthetized and images were acquired with an IVIS Lumina II imaging system (Perkin Elmer). Bioluminescence was measured as total flux (photons/second) of the entire mouse.

mice [4] = test: Example 39: Factor IX mmRNA IM in mice, serum Factor IX at 13 hours; format: in vivo; conditions: 2×100 ug/mouse IM
Protocol: Human Factor IX mmRNA (Gen1; fully modified 5-methycytosine and pseudouridine) formulated in formulation buffer was delivered to mice via intramuscular injection.
The mice were bled at 13 hours after the intramuscular injection to determine the concentration of human the polypeptide in serum in pg/mL.

[5] = test system: peripheral blood mononuclear cells (PBMC); format: cell-based, human; conditions: three human PBMC donors
Protocol: 500 ng of G-CSF mRNA modified with 5-methylcytosine (5mC) and pseudouridine (pseudoU) or unmodified G-CSF mRNA was transfected with 0.4 uL of Lipofectamine 2000 into peripheral blood mononuclear cells (PBMC) from three normal blood donors (D1, D2, and D3). […] The supernatant was harvested 6 hours and 18 hours after transfection and run by ELISA to determine the protein expression. The expression of G-CSF, IFN-alpha, and TNF-alpha for Donor 1 is shown in Table 88, Donor 2 is shown in Table 89 and Donor 3 is shown in Table 90.

mice [6] = test: Example 40: multi-site IM/SC G-CSF mRNA in mice, neutrophil count (Table 65); format: in vivo; conditions: intramuscular, day 3
Protocol: Injection of four doses or 2×50 ug (two sites) daily for three days (24 hrs interval) was performed. The fourth dose was administered 6 hrs before blood collection and CBC analysis. […] The mice were bled at 72 hours after the first mRNA injection (6 hours after the last mRNA dose) to determine the effect of mRNA-encoded human G-CSF on the neutrophil count. The dosing regimen is shown in Table 65 as are the resulting neutrophil counts (thousands/uL). In Table 65, an asterisks (*) indicate statistical significance at p<0.05.

C57/BL6 mice = test: Example 32B: human G-CSF lipoplex IM, SC, IV in mice, serum G-CSF ELISA at 6 hours (Table 56); format: in vivo; conditions: serum 6 hours after administration
Protocol: 6 hours after administration of a formulation, serum was collected from each mouse to measure the amount of human G-CSF protein in the mouse serum by human G-CSF ELISA and the results are shown in Table 56.

mice [7] = test: Example 48: split dose study EPO mmRNA IM in mice, serum EPO, dose splitting factor (Table 79); format: in vivo
Protocol: The dosing vehicle (F. buffer) consisted of 150 mM NaCl, 2 mM CaCl2), 2 mM Natphosphate (1.4 mM monobasic sodium phosphate; 0.6 mM dibasic sodium phosphate), and 0.5 mM EDTA, pH 6.5. The pH was adjusted using sodium hydroxide and the final solution was filter sterilized.
Animals (n=5) were injected IM (intramuscular) for the single unit dose of 100 ug. For multi-dosing, two schedules were used, 3 doses of 100 ug and 6 doses of 100 ug. For the split dosing scheme, two schedules were used, 3 doses at 33.3 ug and 6 doses of 16.5 ug mmRNA. Control dosing involved use of buffer only at 6 doses. […] Blood and muscle tissue were evaluated 13 hrs post injection.
Human EPO protein was measured in mouse serum 13 h post I.M. single, multi- or split dosing of the EPO mmRNA in buffer. Seven groups of mice (n=5 mice per group) were treated and evaluated.
The splitting factor is defined as the product per unit drug divided by the single dose product per unit drug (PUD). For example for treatment group 2 the value 0.28 or product (EPO) per unit drug (mmRNA) is divided by the single dose product per unit drug of 0.14. The result is 2. Likewise, for treatment group 4, the value 1.1 or product (EPO) per unit drug (mmRNA) is divided by the single dose product per unit drug of 0.14. The result is 7.9. Consequently, the dose splitting factor (DSF) may be used as an indicator of the efficacy of a split dose regimen. For any single administration of a total daily dose, the DSF should be equal to 1. Therefore any DSF greater than this value in a split dose regimen is an indication of increased efficacy.

## Luciferase: luciferase mRNA, SEQ ID NO: 14, Cap1, fully modified with 5-methylcytosine and pseudouridine
Balb-C mice [1]; 5 Hours
  Total Flux: 9.94E+05 p/s
Balb-C mice [1]; 24 Hours
  Total Flux: 7.44E+05 p/s
[2]; PBMC donor D1, 960 ng mRNA
  G-CSF Expression: 14.5 pg/mL
[2]; PBMC donor D2, 960 ng mRNA
  G-CSF Expression: 3.1 pg/mL
[2]; PBMC donor D3, 960 ng mRNA
  G-CSF Expression: 10.0 pg/mL
Balb-C mice [3]; Group 1, no EP, 3 Hours
  Total Flux (photons/s): 2.57E+07 photons/s
Balb-C mice [3]; Group 1, no EP, 24 Hours
  Total Flux (photons/s): 3.81E+07 photons/s
Balb-C mice [3]; Group 1, no EP, 48 Hours
  Total Flux (photons/s): 1.24E+07 photons/s
Balb-C mice [3]; Group 1, no EP, 72 Hours
  Total Flux (photons/s): 5.69E+06 photons/s
Balb-C mice [3]; Group 1, no EP, 168 Hours
  Total Flux (photons/s): 1.48E+06 photons/s
Balb-C mice [3]; Group 1, no EP, 240 Hours
  Total Flux (photons/s): 6.50E+05 photons/s
Balb-C mice [3]; Group 1, no EP, 360 Hours
  Total Flux (photons/s): 1.86E+05 photons/s
Balb-C mice [3]; Group 1, no EP, 480 Hours
  Total Flux (photons/s): 6.65E+04 photons/s
Balb-C mice [3]; Group 2, with EP, 24 Hours
  Total Flux (photons/s): 8.27E+07 photons/s
Balb-C mice [3]; Group 2, with EP, 48 Hours
  Total Flux (photons/s): 7.06E+07 photons/s
Balb-C mice [3]; Group 2, with EP, 72 Hours
  Total Flux (photons/s): 6.50E+07 photons/s
Balb-C mice [3]; Group 2, with EP, 168 Hours
  Total Flux (photons/s): 1.81E+07 photons/s
Balb-C mice [3]; Group 2, with EP, 240 Hours
  Total Flux (photons/s): 1.44E+07 photons/s
Balb-C mice [3]; Group 2, with EP, 360 Hours
  Total Flux (photons/s): 3.98E+06 photons/s
Balb-C mice [3]; Group 2, with EP, 480 Hours
  Total Flux (photons/s): 1.47E+06 photons/s
Balb-C mice [3]; Group 2, with electroporation (EP), 3 Hours
  Total Flux (photons/s): 1.25E+07 photons/s
Mice [4]
  Factor IX in serum: less than 100 pg/mL

B1: G-CSF: modified mRNA encoding human G-CSF, SEQ ID NO: 4, Cap1, fully modified with 5-methylcytosine and pseudouridine; LNP-formulated in Examples 16-22 (nucleic acid)
chain: GGGAAAUAAGAGAGAAAAGAAGAGUAAGAAGAAAUAUAAGAGCCACCAUGGCCGGUCCCGCGACCCAAAGCCCCAUGAAACUUAUGGCCCUGCAGUUGCUGCUUUGGCACUCGGCCCUCUGGACAGUCCAAGAAGCGACUCCUCUCGGACCUGCCUCAUCGUUGCCGCAGUCAUUCCUUUUGAAGUGUCUGGAGCAGGUGCGAAAGAUUCAGGGCGAUGGAGCCGCACUCCAAGAGAAGCUCUGCGCGACAUACAAACUUUGCCAUCCCGAGGAGCUCGUACUGCUCGGGCACAGCUUGGGGAUUCCCUGGGCUCCUCUCUCGUCCUGUCCGUCGCAGGCUUUGCAGUUGGCAGGGUGCCUUUCCCAGCUCCACUCCGGUUUGUUCUUGUAUCAGGGACUGCUGCAAGCCCUUGAGGGAAUCUCGCCAGAAUUGGGCCCGACGCUGGACACGUUGCAGCUCGACGUGGCGGAUUUCGCAACAACCAUCUGGCAGCAGAUGGAGGAACUGGGGAUGGCACCCGCGCUGCAGCCCACGCAGGGGGCAAUGCCGGCCUUUGCGUCCGCGUUUCAGCGCAGGGCGGGUGGAGUCCUCGUAGCGAGCCACCUUCAAUCAUUUUUGGAAGUCUCGUACCGGGUGCUGAGACAUCUUGCGCAGCCGUGAAGCGCUGCCUUCUGCGGGGCUUGCCUUCUGGCCAUGCCCUUCUUCUCUCCCUUGCACCUGUACCUCUUGGUCUUUGAAUAAAGCCUGAGUAGGAAG
modifications: Cap1, 5-methylcytosine, pseudouridine
[5]
  protein translation and cytokine production: most protein translation (G-CSF) and the least amount of cytokine
Mice [6]
  increase in neutrophil count above control: four fold increase
C57/BL6 mice; I.M., 100 μg
  Human G-CSF in Serum: 85.6 pg/mL
C57/BL6 mice; I.V., 100 μg (Luc-unsp 150 μg)
  Human G-CSF in Serum: 31.0 pg/mL
C57/BL6 mice; S.C., 100 μg
  Human G-CSF in Serum: 3.9 pg/mL

B2: EPO: modified mRNA encoding human erythropoietin, SEQ ID NO: 7, Cap1, fully modified with 5-methylcytosine and pseudouridine; LNP NPA-060-1 in Examples 17-22 (nucleic acid)
chain: GGGAAAUAAGAGAGAAAAGAAGAGUAAGAAGAAAUAUAAGAGCCACCAUGGGAGUGCACGAGUGUCCCGCGUGGUUGUGGUUGCUGCUGUCGCUCUUGAGCCUCCCACUGGGACUGCCUGUGCUGGGGGCACCACCCAGAUUGAUCUGCGACUCACGGGUACUUGAGAGGUACCUUCUUGAAGCCAAAGAAGCCGAAAACAUCACAACCGGAUGCGCCGAGCACUGCUCCCUCAAUGAGAACAUUACUGUACCGGAUACAAAGGUCAAUUUCUAUGCAUGGAAGAGAAUGGAAGUAGGACAGCAGGCCGUCGAAGUGUGGCAGGGGCUCGCGCUUUUGUCGGAGGCGGUGUUGCGGGGUCAGGCCCUCCUCGUCAACUCAUCACAGCCGUGGGAGCCCCUCCAACUUCAUGUCGAUAAAGCGGUGUCGGGGCUCCGCAGCUUGACGACGUUGCUUCGGGCUCUGGGCGCACAAAAGGAGGCUAUUUCGCCGCCUGACGCGGCCUCCGCGGCACCCCUCCGAACGAUCACCGCGGACACGUUUAGGAAGCUUUUUAGAGUGUACAGCAAUUUCCUCCGCGGAAAGCUGAAAUUGUAUACUGGUGAAGCGUGUAGGACAGGGGAUCGCUGAUAAGCUGCCUUCUGCGGGGCUUGCCUUCUGGCCAUGCCCUUCUUCUCUCCCUUGCACCUGUACCUCUUGGUCUUUGAAUAAAGCCUGAGUAGGAAG
modifications: Cap1, 5-methylcytosine, pseudouridine
Mice [7]; single dose
  product (EPO) per unit drug (mmRNA): 0.14
Mice [7]; treatment group 2
  dose splitting factor (DSF): 2
  product (EPO) per unit drug (mmRNA): 0.28
Mice [7]; treatment group 4
  dose splitting factor (DSF): 7.9
  product (EPO) per unit drug (mmRNA): 1.1
